Assay results from patent publication US5773423A (priority 1994, dated 1998).
Read-outs that look alike come from different tables or passages of the source. One block for each compound: values may come before it.

How the values were obtained:
[1] = test system: cardiovascular parameters in rats; type: in vivo, rat
[2] = molecular target: T1, A1 receptors from rat brain membranes (Rattus norvegicus, UniProt P25099); experiment: biochemical; type: binding
T1 construct: Rat cerebral cortical and striatal membranes were prepared; from tissue; host or cells: rat brain (cerebral cortical) membranes
T1 sequence (P25099 1-326): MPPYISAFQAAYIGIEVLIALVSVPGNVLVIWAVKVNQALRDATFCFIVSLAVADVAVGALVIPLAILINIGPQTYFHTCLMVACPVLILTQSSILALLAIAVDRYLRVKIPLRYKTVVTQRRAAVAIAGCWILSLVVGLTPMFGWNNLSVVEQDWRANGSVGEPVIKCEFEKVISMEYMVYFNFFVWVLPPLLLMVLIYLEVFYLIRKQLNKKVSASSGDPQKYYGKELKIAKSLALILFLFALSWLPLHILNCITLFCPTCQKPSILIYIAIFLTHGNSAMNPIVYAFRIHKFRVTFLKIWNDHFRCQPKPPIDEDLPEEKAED

[3] = molecular target: T2, A2 receptors from rat striatal membranes (Rattus norvegicus, UniProt P30543); experiment: Radioligand binding at A2 (A2a) receptors, displacement of [3H]CGS 21680 (or [3H]NECA with 50 nM CPA) from rat striatal membranes
T2 construct: Rat cerebral cortical and striatal membranes were prepared; from tissue; host or cells: rat striatal membranes
T2 sequence (P30543 whole entry): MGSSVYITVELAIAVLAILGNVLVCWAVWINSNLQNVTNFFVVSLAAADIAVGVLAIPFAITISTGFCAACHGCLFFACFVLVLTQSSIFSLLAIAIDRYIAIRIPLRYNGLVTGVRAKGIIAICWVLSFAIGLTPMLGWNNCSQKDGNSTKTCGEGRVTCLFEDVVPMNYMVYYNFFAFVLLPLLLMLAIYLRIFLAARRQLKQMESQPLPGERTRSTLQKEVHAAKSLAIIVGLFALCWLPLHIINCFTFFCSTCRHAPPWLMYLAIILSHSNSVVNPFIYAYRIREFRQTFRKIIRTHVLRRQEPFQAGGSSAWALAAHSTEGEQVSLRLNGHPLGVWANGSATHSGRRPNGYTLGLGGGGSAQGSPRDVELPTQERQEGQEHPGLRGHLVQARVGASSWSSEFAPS

[4] = test system: NMDA-evoked seizures in mice; type: in vivo
[5] = test system: pentamethylenetetrazole-induced convulsions in mice; type: in vivo; details: PMT 75 mg/kg alone
[6] = 4 mg/kg alone, 10-30 min post-injection
[7] = rat brain membranes, displacement of [3H]PIA (or [3H]CHA), read-out: A1 affinity Ki
[8] = rat striatal membranes, displacement of [3H]CGS 21680 (or [3H]NECA + 50 nM CPA), read-out: A2 affinity Ki
[9] = read-out: A2 percent displacement
[10] = read-out: A1 percent displacement
[11] = at 100 μM, read-out: A2 percent displacement
[12] = at 100 μM, read-out: A1 percent displacement
[13] = Table 4, [3H]PIA, rat brain membranes, read-out: Ki (A1)
[14] = read-out: percent displacement of radioligand at A2
[15] = Table 4, [3H]CGS 21680, rat striatal membranes, read-out: Ki (A2)
[16] = Table 2, [3H]PIA, rat brain membranes, read-out: Ki (A1)
[17] = Table 2, [3H]CGS 21680, rat striatal membranes, read-out: Ki (A2)

Compound: CCCn1c(=O)c2[nH]c(-c3ccc(C=CC(=O)O)cc3)nc2n(CCC)c1=O [BW1433, 1,3-dipropyl-8-(4-carboxyvinylphenyl)xanthine, reference compound]
blood flow and respiratory rates (in words) ([1]; 4 mg/kg alone): Blood flow and respiratory rates were increased
rise in blood pressure [1, 6]: > 40 % of initial values
rise in heart rate [1, 6]: > 40 % of initial values
body temperature (in words) ([1]; rat, in vivo, 4 mg/kg): no major changes

Ki [2, 7]: 1.14 µM
Ki [3, 8]: 6.89 µM
Compound: CC(C)CSC[C@H]1O[C@@H](n2cnc3c(N)ncnc32)[C@H](O)[C@@H]1O [Compound 76, 5'-deoxy-5'-isobutylthio adenosine, reference compound]

Compound: Nc1ncnc2c1ncn2[C@@H]1O[C@H](COP(=O)(O)O)[C@@H](O)[C@H]1O [Compound 78, adenosine-5'-monophosphate, reference compound]
Ki [2]: 47.5 ± 6.5 µM
inhibition at 100 µM [3, 9]: 57.5 ± 4%

inhibition at 100 µM [2, 10]: 36.1 ± 4.9%
inhibition at 100 µM [3, 11]: 51.5 ± 7.4%
Compound: Nc1ncnc2c1ncn2[C@]1(CO)O[C@H](CO)[C@@H](O)[C@H]1O [Compound 80, β-D-psicofuranosyladenine, reference compound]

inhibition at 100 µM [2, 12]: 9.1 ± 2.4%
inhibition at 100 µM [3, 11]: 8.5 ± 2.5%
Compound: O=c1[nH]c(=O)c2ncn([C@@H]3O[C@H](CO)[C@@H](O)[C@H]3O)c2[nH]1 [Compound 81, xanthosine, reference compound]

Compound: O=c1ccn([C@@H]2O[C@H](CO)[C@@H](O)[C@H]2O)c(=O)[nH]1 [Compound 82, uridine, reference compound]
inhibition at 100 µM [2, 12]: 14.3 ± 6.9%
inhibition at 100 µM [3, 9]: 2.8 ± 5.2%

Compound: Cc1cn([C@H]2C[C@H](O)[C@@H](CO)O2)c(=O)[nH]c1=O [Compound 83, thymidine, reference compound]
inhibition at 100 µM [2, 12]: 23.4 ± 2.5%
inhibition at 100 µM [3, 9]: 1.7 ± 3.4%

inhibition at 100 µM [2, 10]: 18 ± 1.2%
inhibition at 100 µM [3, 9]: 16 ± 1.5%
Compound: Nc1ccn([C@@H]2O[C@H](CO)[C@@H](O)[C@H]2O)c(=O)n1 [Compound 84, cytidine, reference compound]

Ki [2, 7]: 16.7 µM
Ki [3, 8]: 50 µM
Compound: OC[C@H]1O[C@@H](n2cnc3c(O)ncnc32)[C@H](O)[C@@H]1O [Compound 85, inosine, reference compound]

Ki [2, 7]: 27.8 µM
Ki [3, 8]: 8.5 µM
Compound: Nc1nc2c(ncn2[C@@H]2O[C@H](CO)[C@@H](O)[C@H]2O)c(=O)[nH]1 [Compound 86, guanosine, reference compound]

Ki [2, 7]: 15 µM
Ki [3, 8]: 48.5 µM
Compound: Nc1nc(SCc2ccc([N+](=O)[O-])cc2)c2ncn([C@@H]3O[C@H](CO)[C@@H](O)[C@H]3O)c2n1 [Compound 87, (4-nitrobenzyl)-6-thioguanosine, reference compound]

inhibition at 100 µM [2, 12]: 44.2 ± 2.3%
inhibition at 100 µM [3, 11]: 27.7 ± 5.8%
Compound: Nc1nc2c(ncn2[C@@H]2O[C@H](CO)[C@@H](O)[C@H]2O)c(=S)[nH]1 [Compound 88, 6-thioguanosine, reference compound]

inhibition at 100 µM [2, 12]: 61.2 ± 3.9%
inhibition at 100 µM [3, 9]: 33.6 ± 3.3%
Compound: OC[C@H]1O[C@@H](n2cnc3c(=S)[nH]cnc32)[C@H](O)[C@@H]1O [Compound 89, 6-thiopurine riboside, reference compound]

inhibition at 100 µM [2, 12]: 0%
inhibition at 100 µM [3, 9]: 6.2 ± 4.2%
Compound: CNC(=O)[C@H]1O[C@@H](n2cnc3c(=O)[nH]cnc32)[C@H](O)[C@@H]1O [Compound 90, inosine-5'-N-methyluronamide]

Compound: CCNC(=O)[C@H]1O[C@@H](n2cnc3c(=O)[nH]cnc32)[C@H](O)[C@@H]1O [Compound 91, inosine-5'-N-ethyluronamide]
IC50 [2]: > 100 µM
inhibition at 100 µM [2, 10]: 43.7 ± 10.3%
IC50 [3]: > 100 µM
inhibition at 100 µM [3, 9]: 30.6 ± 2.3%

inhibition at 100 µM [2, 12]: 52.3 ± 7.9%
inhibition at 100 µM [3, 9]: 37.7 ± 4.9%
Compound: Cn1cnc2[nH]c(=O)[nH]c(=O)c21 [Compound 101, 7-methylX, reference compound]

inhibition at 100 µM [2, 12]: 29.4 ± 1.6%
inhibition at 100 µM [3, 9]: 6 ± 6.3%
Compound: Cn1c(=O)[nH]c2c(ncn2C)c1=O [Compound 105, 1,9-dimethylX, reference compound]

inhibition at 100 µM [2, 12]: 19.7 ± 7.9%
inhibition at 100 µM [3, 9]: 4.2 ± 5.9%
Compound: Cn1cnc2c(=O)[nH]c(=O)n(C)c21 [Compound 107, 3,9-dimethylX, reference compound]

Ki [2, 7]: 1.26 µM
inhibition at 10 µM [3, 9]: 14.3 ± 3%
Compound: CCCCCCn1c(=O)c2[nH]cnc2n(CCCCCC)c1=O [Compound 110, 1,3-dihexylX, reference compound]

Ki [2, 7]: 26.1 µM
Ki [3, 8]: 32.5 µM
Compound: CCCn1c(=S)[nH]c(=O)c2[nH]cnc21 [Compound 114, 2-thio-3-propylX, reference compound]

Ki [2, 13]: 27 µM
inhibition at 100 µM [3, 14]: 2%
Compound: Cn1c(=O)c2c(ncn2[C@@H]2O[C@H](CO)[C@@H](O)[C@H]2O)n(C)c1=O [Compound 117, theophylline-7-riboside, reference compound]

Ki [2, 7]: 15.9 µM
inhibition at 100 µM [3, 9]: 32 ± 1.1%
inhibition at 100 µM [3, 14]: 32%
Compound: CCCn1c(=O)c2c(ncn2[C@@H]2O[C@H](CO)[C@@H](O)[C@H]2O)n(CCC)c1=O [Compound 118, 1,3-di-n-propylxanthine-7-β-D-ribofuranoside, reference compound]

Ki [2, 7]: 4.19 µM
Ki [3, 8]: 19.5 µM
Compound: CCCCn1c(=O)c2c(ncn2[C@@H]2O[C@H](CO)[C@@H](O)[C@H]2O)n(CCCC)c1=O [Compound 119, 1,3-di-n-butylxanthine-7-β-D-ribofuranoside]

potency increase at A1 and A2a receptors vs 1,3-di-n-butylxanthine-7-β-D-ribofuranoside [2]: 2-4 fold
Ki [2, 13]: 2.19 µM
Ki [3, 15]: 8.67 µM
Ki [3, 8]: 3.8 µM
Compound: CCCCn1c(=O)n(Cc2ccccc2)c(=O)c2c1ncn2[C@@H]1O[C@H](CO)[C@@H](O)[C@H]1O [Compound 120, 1-benzyl-3-butylxanthine-7-β-D-ribofuranoside]

potency increase at A1 and A2a receptors vs 1,3-di-n-butylxanthine-7-β-D-ribofuranoside ([2]; A1 and A2a receptors): 2-4 fold
Ki [2, 13]: 1.72 ± 0.03 µM
Ki [3, 15]: 4.51 µM
Ki [3, 8]: 4.51 µM
Compound: CCCCn1c(=O)c2c(ncn2[C@@H]2O[C@H](CO)[C@@H](O)[C@H]2O)n(Cc2ccccc2)c1=O [Compound 121, 3-benzyl-1-butylxanthine-7-β-D-ribofuranoside]

Ki [2, 13]: 3.72 µM
inhibition at 3 µM [3, 14]: 0%
Compound: CCCCn1c(=O)c2c(ncn2[C@@H]2O[C@H](C(=O)OC)[C@@H](O)[C@H]2O)n(CCCC)c1=O [Compound 122, methyl 1,3-di-n-butylxanthine-7-β-D-ribofuronate]

Ki [2, 7]: 2.94 µM
Ki [3, 8]: 59.2 µM
Compound: CCCCn1c(=O)c2c(ncn2[C@@H]2O[C@H](C(N)=O)[C@@H](O)[C@H]2O)n(CCCC)c1=O [Compound 123, 1,3-di-n-butylxanthine-7-β-D-ribofuronamide]

Ki [2, 7]: 7.5 µM
Ki [3, 8]: 17 µM
Compound: CCCCn1c(=O)c2c(ncn2[C@@H]2O[C@H](C(=O)NCC)[C@@H](O)[C@H]2O)n(CCCC)c1=O [Compound 126, N-ethyl 1,3-di-n-butylxanthine-7-β-D-ribofuronamide]

Ki [2, 7]: 0.226 ± 0.037 µM
Ki [3, 8]: 48.7 µM
Compound: CCCn1c(=O)[nH]c2nc(C3CCCC3)[nH]c2c1=O [Compound 129, 8-cyclopentyl-1-propylX, reference compound]

inhibition at 100 µM [2, 12]: 30.2 ± 6.7%
inhibition at 100 µM [3, 9]: 24.7 ± 3.9%
Compound: Cn1c(=O)c2[nH]c(Cl)nc2n(C)c1=O [Compound 132, 8-chloroT, reference compound]

factor less potent than N6-(3-iodobenzyl)-adenosine at A1 receptors [2]: 3.2 factor
Ki [2, 16]: 0.0638 ± 0.0151 µM
factor less potent than N6-(3-iodobenzyl)-adenosine at A2a receptors [3]: 6.7 factor
Ki [3, 17]: 0.117 ± 0.015 µM
Compound: Nc1nc(NCc2cccc(I)c2)c2ncn([C@@H]3O[C@H](CO)[C@@H](O)[C@H]3O)c2n1 [Example 43, 2-amino-N^6-(3-iodobenzyl)-9-[β-D-ribofuranosyl]-adenine]

Ki [2, 16]: 4.89 ± 2.58 µM
Ki [3, 17]: 4.12 ± 0.21 µM
Compound: CNC(=O)[C@H]1O[C@@H](n2cnc3c(NCc4cccc(I)c4)nc(NC)nc32)[C@H](O)[C@@H]1O [Example 45, N^6-(3-iodobenzyl)-2-methylamino-9-[5-(methylamido)-β-D-ribofuranosyl]-adenine]

inhibition at 100 µM ([2]; Table 4, at 10^-4 M, read-out: percent displacement of radioligand at A1): 21 ± 3%
inhibition at 100 µM ([3]; Table 4, at 10^-4 M, read-out: percent displacement of radioligand at A2): 4%
Compound: COc1nc2c(c(=O)n(C)c(=O)n2C)n1[C@@H]1O[C@H](CO)[C@@H](O)[C@H]1O [Example 59, 8-methoxytheophylline-7-β-D-ribofuranoside]

Compound: CN[C@H](CC(=O)O)C(=O)O [NMDA, N-methyl-D-aspartate, reference compound]
% Mortality at 24 h ([4]; NMDA 60 mg/kg alone): 60%
Ave. Latency to Seizures ([4]; NMDA 60 mg/kg alone): 244 + 90 sec
% Convulsing ([4]; NMDA 60 mg/kg alone (control), within 15 min): 80%
Impairment (neurological impairment scale 1-6) ([4]; NMDA 60 mg/kg alone, 1 no change ... 6 clonic/tonic complexes): 3.5 ± 0.5

Compound: C1CCc2nnnn2CC1 [PMT, pentamethylenetetrazole, reference compound]
Mortality 0.4-5 h [5]: 0%
Mortality <15 min [5]: 100%
Mortality >5 h [5]: 0%
Mortality Overall [5]: 100%
Onset of convulsive behavior [5]: 74 s
